Laboratory results as given in patent publication US20200375963A1 (priority 2017, published 2020).

Key:
Assay type in all cases: cell-based, human
[1] = test system: A3A-mediated RNA editing (SDHB c.136 C>U) in monocyte-enriched PBMCs (MEPs); assay: SDHB c.136 C>U RNA editing in monocyte-enriched PBMCs (allele specific RT-qPCR)
Experimental: (§1) Leukoreduction filters (Terumo BCT, Lakewood, Colo.), waste products of platelet donation process, were used to isolate PBMCs by an IRB-approved protocol. PBMCs were isolated using Histopaque-1077 (Sigma). Monocyte-enriched PBMCs (MEPs) were prepared using cold-aggregation method with slight modifications (30,60) Monocytes were isolated from MEPs or PBMCs using EasySep Human CD14 Positive Selection Kit (STEMCELL Technologies). Flow cytometric verification of isolated CD14+ cells were performed using RPCI core facility services. The MEPs were cultured at an average density of 25-35×10^6/ml in 1 or 2 ml per well in 6- or 12-well standard tissue culture plates under standard conditions (37° C./5% CO2) in RPMI-1640 medium with 10% FBS, 100 U/ml penicillin and […] streptomycin (Mediatech). Isolated CD14+ and CD14− cells were cultured at approximately 5×10^6 cell/ml and 7×10^6 cells per ml densities, respectively. THP-1 and TLA-HEK293T cell lines were purchased from ATCC, and Open Biosystems®, respectively, and cultured in recommended conditions. THP-1 cells were cultured in 10^6 cells per 100 μl in 96-well culture plates in ATCC-formulated-1640 medium (30-2001), whereas 293T cells were cultured in DMEM medium supplemented with 10% FBS.
(§2) Cells were cultured under 1% or 6% O2, 5% CO2 and 94% N2 at 37° C. using Xvivo System (Biospherix). Human ‘universal’ type I IFN was obtained from PBL Assay Science and used at 600 U/ml. Atpenin A5 (Cayman chemical #11898), myxothiazol (Sigma-Aldrich, #T5580) and 2-Thenoyltrifluoroacetone (TTFA) (Sigma-Aldrich, #T27006) were used at 1-2 μM and 400 μM final concentrations, respectively. DFO (Sigma-Aldrich #D9533) and DMOG (Sigma-Aldrich #D3695) were used in 0.5 mM and 1.0 mM final concentrations, respectively.
(§3) RNA and plasmid DNA were isolated with commercial kits (TRIzol, Life Technologies and Qiagen, respectively). RNA/DNA was quantified by Nanodrop 2000 (Thermo Fisher). Proteins were quantified using Bio-Rad Dc assay with BSA standards. RNA was reverse transcribed with the Transcriptor First Strand cDNA Synthesis (Roche) kit. SDHB c.136C>U RNA editing was quantified by allele specific RT-qPCR PCR oligonucleotide primers (FIG. 13) were obtained from Integrated DNA Technologies, Inc. ADM, ELL2, HILPDA, NGLY1, MET, TKTL1, VEGFA and B2M gene expression levels was assessed by qPCR using FastStart Taq DNA polymerase and SYBR Green I dye on a LightCycler 480 System (Roche). Quantification cycle values were calculated by the instrument software using the maximum second derivative method and the mean quantification cycle value of duplicate PCR reactions was used for analysis. Delta delta CT method is used to infer gene expression changes.

[2] = test system: SDHB c.136C>U RNA editing in CD14+ monocytes; assay: SDHB c.136C>U RNA editing in CD14+ monocytes isolated after culture of MEPs; details: CD14+ cells, AtA5/normoxia 2 days, n=3 donors; normoxic controls 5.4%±1.7%
Excerpt: We examined whether MTCII also regulates induction of gene expression in primary monocytes under hypoxia or when inactivated, as observed in SDH-mutated paragangliomas. To test the impact of MTCII inhibition on monocyte gene expression, we cultured MEPs (n=3 donors) in normoxia (1 day), hypoxia (1 day) and AtA5/normoxia (2 days), isolated CD14+ monocytes and performed RNA seq analysis. […] HIF1A but not EPAS1 (HIF2A) or HIF3A is expressed robustly (RPKM averages 21.5, 0.17 and 0.01, respectively) in monocytes. […]
as §3, with “RNA was reverse transcribed with the Transcriptor First Strand cDNA Synthesis (Roche) kit.” left out, “Delta delta CT method is used to infer gene expression changes.” left out

[3] = test system: hypoxia-related gene expression in CD14+ monocytes; assay: Gene expression in CD14+ monocytes (RNA seq, RT-qPCR); details: for mRNA expression of VEGFA and HILPDA: isolated CD14+ monocytes, normoxia, 1 day, n=3 donors
HIF-1α [4] = assay: HIF-1α immunoblot of CD14+ and CD14− primary cells
Experimental: as §1, §2
(§4) 2× Laemmeli buffer (BIO-RAD) was used to prepare whole cell lysates. The lysate resuspended in the Laemmeli buffer was heated at 95° C. for 15 minutes, and 40 μl of the sample was used to perform gel electrophoresis on pre-cast, 4%-15% gradient polyacrylamide gels (Mini-PROTEAN TGX, Bio-Rad) in Laemmeli buffer system. Mouse monoclonal anti-HIF1α (product number GTX628480, GT10211; 1:1000 dilution) and mouse monoclonal anti-β-actin (product number AM4302, AC-15; 1:15,000 dilution) was used to detect HIF-1α or actin, respectively followed by incubation with HRP-conjugated goat anti-mouse antibodies (Life Technologies) at 1:2000 dilution.

[5] = test system: monocyte-enriched PBMCs (MEPs); assay: Oxygen consumption in MEPs (MitoXpress-Xtra phosphorescent oxygen probe); details: approximately 3 hours, n=3 donors
Experimental: (§5) We first measured oxygen consumption and L-lactate levels to confirm the effect of AtA5 and MXT on mitochondrial respiration in MEPs. We used a phosphorescent oxygen probe (MitoXpress-Xtra) which is quenched by oxygen. Cellular respiration in a closed system depletes oxygen and increases the fluorescence. […] Normoxic induction of RNA editing by MXT is also confirmed in a separate experiment from three additional donors (FIG. 11).
(§6) Oxygen consumption was measured using phosphorescent oxygen probe, MitoXpress-Xtra (Cayman Dual Assay Kit, item no. 601060). Monocytes were enriched to >50% purity by short-term cold aggregation and first cultured in standard conditions for 24 hours without treatment to stimulate metabolic activity. Cells were then centrifuged at 200×g for 7 minutes and resuspended in 1 ml RPMI/1% FBS with or without mitochondrial inhibitors. Cells are covered by mineral oil after addition of MitoXpress-Xtra following manufacturer's protocol. The fluorescence was kinetically measured on a plate reader (Synergy H1) at 20 sec intervals for approximately 3 hours (delay 70 μsec, collection time 30 μsec). Supernatants of the oxygen consumption assay were used to measure L-lactate levels following manufacturer's instructions.

[6] = test system: monocyte-enriched PBMCs (MEPs); assay: L-Lactate levels in extra-cellular media of MEPs; details: supernatants of the oxygen consumption assay
Experimental: as §5, §6

HIF-1α [7] = assay: HIF-1α immunoblot of HEK293T cells
Experimental: as §1, §2, §4

HIF-1α [8] = assay: HIF-1α immunoblot of THP-1 cells
Experimental: as §1
Cells were cultured under 1% or 6% O2, 5% CO2 and 94% N2 at 37° C. using Xvivo System (Biospherix). […]

[9] = test system: hypoxia-regulated genes (HILPDA, VEGFA) in THP-1 cells; assay: RT-qPCR of hypoxia-regulated genes in THP-1 cells; details: THP-1, normoxia or hypoxia (1%), 24 hours, HILPDA and VEGFA
Experimental: (§7) Leukoreduction filters (Terumo BCT, Lakewood, Colo.), waste products of platelet donation process, were used to isolate PBMCs by an IRB-approved protocol. PBMCs were isolated using Histopaque-1077 (Sigma). Monocyte-enriched PBMCs (MEPs) were prepared using cold-aggregation method with slight modifications (30,60) Monocytes were isolated from MEPs or PBMCs using EasySep Human CD14 Positive Selection Kit (STEMCELL Technologies). Flow cytometric verification of isolated CD14+ cells were performed using RPCI core facility services. […]
as §3, with “RNA was reverse transcribed with the Transcriptor First Strand cDNA Synthesis (Roche) kit.” left out, “Delta delta CT method is used to infer gene expression changes.” left out

[10] = test system: hypoxia-regulated genes (ELL2, VEGFA) in 293T cells; assay: RT-qPCR of hypoxia-regulated genes in 293T cells; details: normoxia and hypoxia (1% O2), 24 hours
Experimental: as §7
as §3, with “RNA was reverse transcribed with the Transcriptor First Strand cDNA Synthesis (Roche) kit.” left out, “Delta delta CT method is used to infer gene expression changes.” left out

[11] = test system: hypoxia-response elements (HRE) from PGK1, a HIF-1α target gene; assay: HRE-luciferase reporter in HEK293T cells; details: 293T
Experimental: It is possible that HIF-1α may have degraded depending on cell type, time of analysis (24 h) or another factor. Therefore, we further examined the effect of AtA5 in HEK293T embryonic kidney cell line and THP-1 monocytic leukemia cell line over a 24 hour period. Several studies in cell lines have reported normoxic stabilization of HIF-1α upon knocking down MTCII (Selak et al., (2005), Cancer. Cell, 7, 77-85, Guzy et al., (2008), Mol. Cell. Biol., 28, 718-731, Cervera et al., (2008), Cancer Res., 68, 4058-4067). […] Since AtA5 appeared to suppress HIF-1α in mild hypoxia, we exposed the cells to both 6% and 1% O2. […] To confirm the suppression of HIF-regulated gene expression, we used a plasmid construct expressing firefly luciferase under the control of three hypoxia-response elements […] from PGK1, a HIF-1α target gene.
HEK293T cells were cotransfected with the 400 ng of HRE-luciferase (Addgene, plasmid #26731), 1 ng of pRL-SV40 plasmid, 600 ng of pcDNA 3.1(+) (control empty vector) per well at ˜50-60% confluency using jetPRIME (Polyplus-transfection) in 12-well culture plates as per the manufacturer's instructions. Transfection efficiency was 60%-80% as assessed by fluorescent microscopy of cells co-transfected with the pLemiR plasmid DNA (Open Biosystems) for expression of a red fluorescent protein. Cells were harvested 2 days after transfection for measurement of their HRE and Renilla luciferase activities using Dual-Luciferase Reporter Assay System (Promega). HRE expression was quantified as a ratio of HRE/Renilla luciferase activities.

[12] = inhibitor jointly with hypoxia (1% O2), compared to hypoxia alone
[13] = hypoxia (1% O2), monocytes isolated from PBMCs then cultured 24 hours, three donors
[14] = normoxia, monocytes isolated from PBMCs then cultured 24 hours
[15] = HEK293T, normoxia, 24 hours, DMOG 1 mM, DFO 0.5 mM, AtA5 1 μM

Structure (SMILES) | SDHB c.136 C>U RNA editing [1, 12] | SDHB c.136 C>U RNA editing ([1]; normoxia, 1-3 days) | mRNA expression of VEGFA and HILPDA [3] | HIF-1α stabilization (western blot) (HIF-1α [4]; [13]) | HIF-1α stabilization (western blot) (HIF-1α [4]; [14]) | oxygen consumption [5] | L-Lactate levels [6] | stabilization of HIF-1α (HIF-1α [7]; 293T, 1% O2, 24 hours) | stabilization of HIF-1α (HIF-1α [7]; 293T, 6% O2, 24 hours) | stabilization of HIF-1α (HIF-1α [7]; [15]) | expression of hypoxia-regulated genes [9] | expression of hypoxia-regulated genes [10] | HRE-driven expression (ratio of HRE/Renilla luciferase activities) ([11]; 6% O2, 24 hours) | further results
COc1[nH]c(O)c(C(=O)[C@@H](C)C[C@H](C)[C@@H](Cl)CCl)c(=O)c1OC [AtA5, 3-((2S,4S,5R)-5,6-dichloro-2,4-dimethylhexanoyl)-2-hydroxy-5,6-dimethoxypyridin-4(1H)-one] | did not further increase RNA editing levels | induced SDHB c.C136U RNA editing | statistically significantly increased | appeared to enhance the stabilization of HIF-1α in hypoxic monocytes in two of three donors | did not robustly stabilize HIF-1α | reduced but did not abolish it | increased relative to the degree of respiratory inhibition | only at 6% O2 | inhibited stabilization of HIF-1α only at 6% O2 | not AtA5 stabilized HIF-1α | suppressed | suppressed | statistically significantly suppressed | SDHB c.136 C>U RNA editing, AtA5 together with IFN1 ([1]; hypoxia with IFN1): no additional effect; SDHB c.136 C>U RNA editing, AtA5 together with IFN1 ([1]; normoxia, IFN1 600 U/ml): additive; SDHB c.136C>U RNA editing (mean±SEM) [2]: 32.1%±14.9%; expression of selected genes (ADM, ELL2, HILPDA, NGLY1, MET, TKTL1 and VEGFA), RT-qPCR ([3]; CD14+ cells, AtA5/normoxia day 2): induction of selected highly-expressed genes; transcriptional upregulation of A3A ([3]; CD14+ cells, AtA5/normoxia, RNA seq): without transcriptional upregulation of A3A; RNA editing in genes other than SDHB ([3]; CD14+ cells, RNA seq analysis): induction of RNA editing in genes other than SDHB; weak HIF-1α expression in normoxia (HIF-1α [7]; HEK293T, normoxia, 24 hours, AtA5 1 μM): suppressed the weak HIF-1α expression in normoxia; stabilization of HIF-1α (HIF-1α [8]; THP-1, normoxia, 24 hours): antagonized weak normoxic stabilization of HIF-1α
CC(=O)N(O)CCCCCNC(=O)CCC(=O)N(O)CCCCCNC(=O)CCC(=O)N(O)CCCCCN.CS(=O)(=O)O [DFO] |  |  |  |  |  |  |  |  |  | stabilized HIF-1α in normoxia |  |  |  | 
COC(=O)CNC(=O)C(=O)OC [DMOG] |  |  |  |  |  |  |  |  |  | stabilized HIF-1α in normoxia |  |  |  | HIF-1α stabilization (western blot) (HIF-1α [4]; normoxia, CD14+ and CD14− cells isolated after culture of MEPs for 1 or 2 days): caused robust normoxic stabilization of HIF-1α
CO/C(=C/C(N)=O)[C@H](C)[C@H](/C=C/c1csc(-c2csc([C@@H](C)/C=C/C=C/C(C)C)n2)n1)OC [MXT, myxothiazol] | no statistically significant effect | induced SDHB mRNA editing in normoxia | statistically significantly increased | appeared to enhance the stabilization of HIF-1α in hypoxic monocytes in two of three donors | did not robustly stabilize HIF-1α | completely suppressed oxygen consumption | increased relative to the degree of respiratory inhibition | inhibited it both at 6% O2 and 1% O2 | inhibited it both at 6% O2 and 1% O2 |  | suppressed | suppressed | inhibited HRE-driven expression | SDHB c.136 C>U RNA editing ([1]; mild hypoxia (6% O2)): increased the editing level; stabilization of HIF-1α (HIF-1α [8]; THP-1, hypoxia 1% O2, 24 hours): inhibited it even at 1% O2; HRE-driven expression (ratio of HRE/Renilla luciferase activities) ([11]; 1% O2, 24 hours): inhibited HRE-driven expression
O=C(CC(=O)C(F)(F)F)c1cccs1 [TTFA, 2-Thenoyltrifluoroacetone] |  | also induced RNA editing in normoxia |  |  |  |  |  |  |  |  |  |  |  | 
